Here are results for ten molecules from ChEMBL document CHEMBL1201862, “PubChem BioAssay data set” (2004).

Test systems include U-251; HOP-62; SF-268; EKVX; SF-539; MDA-N; SNB-19; HCT-15; OVCAR-8; RXF 393; A549; SNB-75; PC-3; Malme-3M; HT-29; A498; IGROV-1; NCI-H23; Hs-578T; NCI-H522.
Holding throughout (assay): NCI-60 cell line screen, 48 h

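Each compound was tested at five concentrations against cells in 96-well plates for 48 hours. At the GI50, growth is halved.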 Active and inactive are the calls of the source. Cut-off read from the data, not from the text of the source: active = GI50 up to about 1.1 µM and inactive = higher.

As to `CC#CC(O)(C(=O)OC1CCCN(C)C1)C1=CC=CCC1` (centres undefined), the GI50 in the assay on U-251, with HOP-62, in the assay on SF-268, in the assay on EKVX, in the assay with SF-539 and in the assay with MDA-N was > 100 µM (inactive) each time. In addition, the GI50 with SNB-19 was > 100 µM (inactive); in the assay with HCT-15, > 100 µM; in the assay on OVCAR-8 it was > 100 µM (inactive); with RXF 393, > 100 µM (inactive); in the assay with A549 it was > 100 µM (inactive); in the assay on SNB-75, > 100 µM (inactive). The GI50 in the assay on PC-3, in the assay on Malme-3M, with HT-29, in the assay on A498, in the assay on IGROV-1 and with NCI-H23 was > 100 µM (inactive) in each case. Besides, the GI50 in the assay on Hs-578T and in the assay with NCI-H522 was > 100 µM (inactive) in each case.

As to `O=C(NC(Nc1ccc(F)c(Cl)c1)(C(F)(F)F)C(F)(F)F)OCc1ccccc1`, the GI50 in the assay on U-251 is 29.2 µM (inactive); in the assay on HOP-62, 30.3 µM (inactive); in the assay on SF-268, 62.7 µM (inactive); with EKVX, 26.4 µM (inactive); in the assay on SF-539 it was 17.6 µM (inactive); in the assay with MDA-N, 19.7 µM (inactive). In addition, the GI50 in the assay with SNB-19 is 20.9 µM (inactive); in the assay with HCT-15, 22.4 µM; in the assay on OVCAR-8 it was 35 µM (inactive); in the assay with RXF 393 it was 43.3 µM (inactive); with A549, 43 µM (inactive); in the assay with SNB-75, 36.9 µM (inactive). The GI50 with PC-3 was 17.4 µM (inactive); in the assay on Malme-3M it was 43.5 µM (inactive); with HT-29 it was 34 µM (inactive); in the assay on A498 it was 37.2 µM (inactive); with IGROV-1, 39 µM (inactive); in the assay on NCI-H23, 71.4 µM (inactive). The GI50 in the assay on Hs-578T was 51.2 µM (inactive); in the assay with NCI-H522 it was 22.7 µM (inactive).

On to `CC1CCC2C(C(=O)O[C@H]3C4C=CO[C@@H](OC5OC(CO)C(O)C(O)C5O)C4[C@@]4(CO)O[C@@H]34)=CO[C@@H](OC3OC(CO)C(O)C(O)C3O)C12` (some centres undefined), for which the GI50 with U-251, in the assay on HOP-62, in the assay on SF-268, in the assay on EKVX, in the assay on SF-539 and in the assay on MDA-N was > 10 µM (inactive) in each case. For the same molecule, the GI50 with SNB-19 is > 10 µM (inactive); in the assay with HCT-15 it was > 10 µM; in the assay with OVCAR-8, > 10 µM (inactive); in the assay with RXF 393 it was > 10 µM (inactive); in the assay on A549, > 10 µM (inactive); in the assay with SNB-75 it was > 10 µM (inactive). Besides, the GI50 with PC-3, with Malme-3M, in the assay with HT-29, in the assay with A498, in the assay with IGROV-1 and in the assay on NCI-H23 was > 10 µM (inactive) each time. Also, the GI50 in the assay with Hs-578T and in the assay on NCI-H522 was > 10 µM (inactive) in each case.

For the molecule `Nc1ccccc1SC(C[N+](=O)[O-])c1ccc2c(c1)OCO2` (centres undefined), the GI50 in the assay on U-251 is 2.64 µM (inactive); in the assay on HOP-62, 2.12 µM (inactive); in the assay on SF-268, 7.55 µM (inactive); with EKVX it was 3.89 µM (inactive); in the assay on SF-539, 2.24 µM (inactive); in the assay on MDA-N, 1.75 µM (inactive). Besides, the GI50 is 12 µM (inactive) with SNB-19; 3.01 µM in the assay with HCT-15; 2.78 µM (inactive) with OVCAR-8; 1.8 µM (inactive) in the assay with RXF 393; 3.1 µM (inactive) in the assay with A549; 2.34 µM (inactive) in the assay with SNB-75. Besides, the GI50 with PC-3 was 7.66 µM (inactive); in the assay on Malme-3M, 15.7 µM (inactive); in the assay with HT-29, 1.89 µM (inactive); with A498 it was 8.39 µM (inactive); in the assay with IGROV-1, 1.51 µM (inactive); in the assay on NCI-H23, 3.08 µM (inactive). Moreover, the results for the GI50 in the assay on Hs-578T and in the assay on NCI-H522 were 5.64 µM (inactive) and 14.1 µM (inactive), respectively.

Turning to `COc1c(O)cc2c(c1O)C(=O)C(Cc1ccc(O)cc1)CO2` (centres undefined), the GI50 is > 100 µM (inactive) in the assay on U-251; 94.6 µM (inactive) in the assay with HOP-62; > 100 µM (inactive) in the assay with SF-268; > 100 µM (inactive) in the assay with EKVX; 56.4 µM (inactive) in the assay on SF-539; 32.1 µM (inactive) in the assay with MDA-N. For the same molecule, the GI50 was > 100 µM (inactive) with SNB-19; 44 µM with HCT-15; 63.1 µM (inactive) in the assay on OVCAR-8; > 100 µM (inactive) in the assay on RXF 393; > 100 µM (inactive) in the assay with A549; 5.79 µM (inactive) in the assay with SNB-75. For the same molecule, the GI50 with PC-3 was 41.7 µM (inactive); in the assay on Malme-3M it was > 100 µM (inactive); in the assay with HT-29, > 100 µM (inactive); in the assay on A498, > 100 µM (inactive); with IGROV-1 it was > 100 µM (inactive); in the assay with NCI-H23 it was > 100 µM (inactive). Besides, the GI50 was > 100 µM (inactive) with Hs-578T and 80.7 µM (inactive) in the assay on NCI-H522.

Turning to `CN(/N=C(\C(=O)O)c1ccccc1)C1=NCCN1`, the GI50 in the assay on HOP-62 is > 100 µM (inactive); with SF-268, > 100 µM (inactive); in the assay on EKVX it was 83.6 µM (inactive); with SF-539, > 100 µM (inactive); in the assay on MDA-N, > 100 µM (inactive); in the assay on HCT-15, > 100 µM. Also, the GI50 with OVCAR-8, in the assay on RXF 393, in the assay with A549, in the assay on SNB-75, in the assay on PC-3 and in the assay on Malme-3M was > 100 µM (inactive) in each case. Also, the GI50 in the assay on HT-29 is > 100 µM (inactive); in the assay on A498, > 100 µM (inactive); with IGROV-1, 54.2 µM (inactive); with NCI-H23, > 100 µM (inactive); in the assay with Hs-578T, > 100 µM (inactive); with NCI-H522, > 100 µM (inactive).

`COc1ccc(C(CC(=O)C(C)(C)CN2CCCCC2)SCCS(=O)(=O)O)cc1` (centres undefined): the GI50 in the assay with U-251 is 62.1 µM (inactive); in the assay with HOP-62, 77.8 µM (inactive); in the assay on EKVX, 30.4 µM (inactive); with SF-539 it was 19.9 µM (inactive); in the assay with MDA-N, 29.6 µM (inactive); in the assay on SNB-19, 83.9 µM (inactive). Besides, the GI50 was 34.2 µM with HCT-15; 33.3 µM (inactive) in the assay on OVCAR-8; 40.4 µM (inactive) with RXF 393; 41.4 µM (inactive) with A549; 22.3 µM (inactive) with SNB-75; 53.7 µM (inactive) in the assay on PC-3. Also, the GI50 was 20.9 µM (inactive) in the assay on Malme-3M; 26.2 µM (inactive) in the assay with HT-29; 26.2 µM (inactive) in the assay on A498; 53.2 µM (inactive) in the assay on IGROV-1; 25.1 µM (inactive) in the assay on NCI-H23; 55.3 µM (inactive) in the assay on Hs-578T. In addition, the GI50 with NCI-H522 was 21.5 µM (inactive).

As to `O=C(CC(=O)Nc1ccccc1)NNC(Sc1ccccc1)c1cc(/N=N/c2ccc(Br)cc2)ccc1O` (centres undefined), the GI50 in the assay with U-251 is 6.31 µM (inactive); in the assay on HOP-62, 3.08 µM (inactive); in the assay with SF-268, 0.587 µM (active); with EKVX, 8.83 µM (inactive); with SF-539, 1.66 µM (inactive); with MDA-N, 2.41 µM (inactive). Besides, the GI50 is > 10 µM (inactive) with SNB-19; 0.678 µM in the assay on HCT-15; 2.37 µM (inactive) in the assay on RXF 393; 3.85 µM (inactive) in the assay with A549; 3.15 µM (inactive) in the assay on SNB-75; 1.45 µM (inactive) in the assay with PC-3. For the same molecule, the GI50 in the assay on Malme-3M was 4.26 µM (inactive); with HT-29 it was 8.13 µM (inactive); in the assay on A498, 1.91 µM (inactive); with IGROV-1, 5.07 µM (inactive); in the assay with NCI-H23, 2.83 µM (inactive); in the assay with Hs-578T, > 10 µM (inactive). For the same molecule, in the assay with NCI-H522, the GI50 was 4.81 µM (inactive).

Consider `CC(C)Oc1cccc(N2C(CCc3c[nH]c4ccc(Br)cc34)=NS(=O)(=O)c3cnccc32)c1`, for which the GI50 is 64.6 µM (inactive) with U-251; 94 µM (inactive) with HOP-62; 69.8 µM (inactive) in the assay on SF-268; 29.2 µM (inactive) with EKVX; 75.7 µM (inactive) in the assay with SF-539; 37.3 µM (inactive) in the assay with MDA-N. Besides, the GI50 was 49.5 µM (inactive) in the assay on SNB-19; 30.8 µM in the assay on HCT-15; 51.2 µM (inactive) in the assay on OVCAR-8; 59.8 µM (inactive) in the assay on RXF 393; 29.2 µM (inactive) in the assay on A549; 48 µM (inactive) in the assay on SNB-75. Besides, the GI50 is 24.7 µM (inactive) in the assay on PC-3; 80 µM (inactive) in the assay on Malme-3M; 26.2 µM (inactive) in the assay on HT-29; 35.4 µM (inactive) with A498; 61.9 µM (inactive) with NCI-H23; 64.6 µM (inactive) in the assay on Hs-578T. The GI50 in the assay with NCI-H522 was 27.9 µM (inactive).

Consider `COC(=O)c1c(O)ccc2c1c1c(n2CCc2ccccc2)C(=O)c2ccccc2C1=O`, for which the GI50 in the assay with U-251 is 12.7 µM (inactive); in the assay with HOP-62, 21.4 µM (inactive); with SF-268, 12.7 µM (inactive); with EKVX, 20.7 µM (inactive); with SF-539 it was 16.7 µM (inactive); in the assay with MDA-N, 10.2 µM (inactive). Also, the GI50 was 17.5 µM (inactive) with SNB-19; 9.35 µM with HCT-15; 8.18 µM (inactive) in the assay on OVCAR-8; 13.3 µM (inactive) with RXF 393; 8.97 µM (inactive) in the assay on A549; 11.6 µM (inactive) with PC-3. Further, the GI50 with Malme-3M was 12.1 µM (inactive); in the assay on HT-29, 11.8 µM (inactive); in the assay with A498 it was 16.6 µM (inactive); with IGROV-1, 11.9 µM (inactive); in the assay with NCI-H23, 11.6 µM (inactive); in the assay with Hs-578T it was 13.3 µM (inactive). Moreover, in the assay with NCI-H522, the GI50 was 7.08 µM (inactive).
